This passage reports IC50 results from paper PMC4932540, “Development of a New Radiofluorinated Quinoline Analog for PET Imaging of Phosphodiesterase 5 (PDE5) in Brain” (Pharmaceuticals, 2016).

For this assay, the target named is T1, PDE5A1 (Homo sapiens, UniProt O76074).
T1 construct: gene PDE5A; human recombinant PDE5A1 protein
The assay is described as follows: cAMP/cGMP-based PDE enzyme assay, recombinant protein. Format: biochemical.

The structures appear in SMILES notation.

The IC50 is the concentration at which inhibition is half-maximal. For `CCc1cc(C#N)cc2c(NCc3ccc(OC)c(Cl)c3)c(COCCF)cnc12` [ICF24027, 4-[(3-Chloro-4-methoxybenzyl)amino]-8-ethyl-3-[(2-fluoroethoxy)methyl]quinoline-6-carbonitrile], the IC50 was 1.86 nM.
